In the supplement of paper PMC10307832:

How the values were obtained:
Test in all cases: relative viability (nuclei count vs DMSO), 5 days (fraction); higher = more cells survive
[1] = test system: BEN
Method in brief: (§1)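 Relative viability equals treated-well nuclei counts divided by vehicle-well nuclei counts. Counts came from 4× images of lung cancer cell lines grown in 1536-well plates for 5 days after pin-tool dosing on the day after seeding. Dosing used one drug alone or a fixed anchor-drug dose plus five library-drug doses (not always all listed) in √10 steps, and values are medians of duplicate plates.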

[2] = test system: NCI-H727
Method in brief: as §1

[3] = test system: NCI-H2405
Method in brief: as §1

[4] = test system: NCI-H322M
Method in brief: as §1

[5] = test system: NCI-H3122
Method in brief: as §1

[6] = test system: NCI-H1355
Method in brief: as §1

[7] = test system: RERF-LC-KJ
Method in brief: as §1

[8] = test system: SK-LU-1
Method in brief: as §1

[9] = test system: NCI-H2023
Method in brief: as §1

[10] = test system: HOP-62
Method in brief: as §1

[11] = test system: NCI-H2087
Method in brief: as §1

[12] = test system: NCI-H1793
Method in brief: as §1

Which relative viability ([1]; first compound 0.04 µM) does the source give for `C[C@@H]1CN(CC(=O)Nc2ccc3c(c2)Cc2cccc(-c4cc(=O)cc(N5CCOCC5)o4)c2S3)C[C@H](C)O1` + CC(=O)c1c(C)c2cnc(Nc3ccc(N4CCNCC4)cn3)nc2n(C2CCCC2)c1=O [Palbociclib] (partner 0.5 µM) here?
Its relative viability is 0.513.

What about the relative viability ([1]; first compound 0.1265 µM) of the same compound?
Its relative viability is 0.471.

What about the relative viability ([1]; first compound 0.4 µM) of the same compound?
Its relative viability is 0.481.

And the relative viability ([1]; first compound 4 µM)?
The relative viability was 0.452.

What about the relative viability ([2]; first compound 0.04 µM) of the same compound?
Its relative viability is 0.852.

What about the relative viability ([2]; first compound 0.1265 µM) of the same compound?
The relative viability was 0.596.

What about the relative viability ([2]; first compound 0.4 µM) of the same compound?
The relative viability was 0.679.

And the relative viability ([2]; first compound 4 µM)?
Its relative viability is 0.675.

What about the relative viability ([3]; first compound 0.04 µM) of the same compound?
The relative viability was 0.564.

What about the relative viability ([3]; first compound 0.1265 µM) of the same compound?
Its relative viability is 0.521.

And the relative viability ([3]; first compound 0.4 µM)?
Its relative viability is 0.486.

And the relative viability ([3]; first compound 4 µM)?
Its relative viability is 0.506.

What about the relative viability ([4]; first compound 0.04 µM) of the same compound?
Its relative viability is 0.421.

And the relative viability ([4]; first compound 0.1265 µM)?
Its relative viability is 0.475.

And the relative viability ([4]; first compound 0.4 µM)?
Its relative viability is 0.506.

What about the relative viability ([4]; first compound 4 µM) of the same compound?
The relative viability was 0.522.

And the relative viability ([5]; first compound 0.04 µM)?
The relative viability was 0.214.

And the relative viability ([5]; first compound 0.1265 µM)?
The relative viability was 0.201.

What about the relative viability ([5]; first compound 0.4 µM) of the same compound?
The relative viability was 0.176.

What about the relative viability ([5]; first compound 4 µM) of the same compound?
Its relative viability is 0.161.

And the relative viability ([6]; first compound 0.04 µM)?
The relative viability was 0.397.

And the relative viability ([6]; first compound 0.1265 µM)?
The relative viability was 0.4.

What about the relative viability ([6]; first compound 0.4 µM) of the same compound?
The relative viability was 0.404.

And the relative viability ([6]; first compound 4 µM)?
Its relative viability is 0.385.

What about the relative viability ([7]; first compound 0.04 µM) of the same compound?
Its relative viability is 1.03.

What about the relative viability ([7]; first compound 0.1265 µM) of the same compound?
Its relative viability is 1.05.

And the relative viability ([7]; first compound 0.4 µM)?
The relative viability was 1.17.

What about the relative viability ([7]; first compound 4 µM) of the same compound?
The relative viability was 0.818.

What about the relative viability ([8]; first compound 0.04 µM) of the same compound?
Its relative viability is 0.434.

What about the relative viability ([8]; first compound 0.1265 µM) of the same compound?
The relative viability was 0.372.

And the relative viability ([8]; first compound 0.4 µM)?
Its relative viability is 0.367.

What about the relative viability ([8]; first compound 4 µM) of the same compound?
The relative viability was 0.387.

What about the relative viability ([9]; first compound 0.04 µM) of the same compound?
Its relative viability is 0.426.

What about the relative viability ([9]; first compound 0.1265 µM) of the same compound?
Its relative viability is 0.336.

And the relative viability ([9]; first compound 0.4 µM)?
Its relative viability is 0.371.

What about the relative viability ([9]; first compound 4 µM) of the same compound?
Its relative viability is 0.288.

And the relative viability ([10]; first compound 0.04 µM)?
The relative viability was 0.398.

And the relative viability ([10]; first compound 0.1265 µM)?
Its relative viability is 0.43.

What about the relative viability ([10]; first compound 0.4 µM) of the same compound?
Its relative viability is 0.412.

And the relative viability ([10]; first compound 4 µM)?
Its relative viability is 0.405.

What about the relative viability ([11]; first compound 0.04 µM) of the same compound?
Its relative viability is 0.213.

What about the relative viability ([11]; first compound 0.1265 µM) of the same compound?
Its relative viability is 0.253.

And the relative viability ([11]; first compound 0.4 µM)?
Its relative viability is 0.244.

What about the relative viability ([11]; first compound 4 µM) of the same compound?
Its relative viability is 0.267.

And the relative viability ([12]; first compound 0.04 µM)?
The relative viability was 0.297.

And the relative viability ([12]; first compound 0.1265 µM)?
Its relative viability is 0.323.

And the relative viability ([12]; first compound 0.4 µM)?
Its relative viability is 0.296.
